Reference: patent publication EP4755396A1, “TREATMENT OF P53 GENE MUTATION OR DEFECT NEGATIVE CANCER AND TUMOR PATIENTS” (Ascentawits Pharmaceuticals, Ltd., priority 2023, dated 2025)

Assays:
Format in all cases: cell-based
[1] = test system: Ser15-p53, Ser20-p53, Total p53, MDM2 and p21 proteins in H460 cells; experiment: WB detection of p53 protein pathway; settings: 0.1-1 nM AST-3424, 5 µM Nutlin-3, 24 hours, three experiments (Figures 11-13)
Experimental: Overview of the experimental process: • 1) H460 cell suspension was added to a 24-well plate, with a cell density of 80000 /well and 995 µL of medium per well. • 2) The cells were cultured overnight in an incubator at 37°C, 5% CO2. • 3) Compound Treatment
After 24 hours of cell plating, according to the protocol, each cell line experiment was grouped as: Monotherapy: After 24 hours of cell plating, each well was supplied with 5µL of test compounds at different concentrations: 0.5% DMSO, 0.1nM AST-3424 and 5 µM Nutlin-3, shaken gently to ensure even mixing, and then placed at 37°C, 5% CO2 in an incubator.
Combination therapy: After 24 hours of cell plating, each well was supplied with 5µL of test compounds at different concentrations. The cells were pre-treated with 5µM Nutlin-3 for 2 hours and then were added with 0.1nM AST-3424, shaken gently to ensure even mixing, and then placed at 37°C, 5% CO2 in an incubator.
4) Cell protein lysates were collected for WB analysis.
Combination therapy group: • Adding 0.1 nM AST-3424 for pre-treatment for 2 hours, and then adding 5 µM Nutlin-3 for co-treatment for 22 hours; • Adding 0.3 nM AST-3424 for pre-treatment for 2 hours, and then adding 5 µM Nutlin-3 for co-treatment for 22 hours; • Adding 1 nM AST-3424 for pre-treatment for 2 hours, and then adding 5 µM Nutlin-3 for co-treatment for 22 hours.

[2] = test system: p53, Rad51, MDM2 and p21 proteins in HPAF-II cells; experiment: WB detection of p53 pathway proteins in p53 mutant cells; settings: 60 nM AST, 8 µM Nutlin-3, 24 hours (Figure 23)
Experimental: • 1)HPAF-II cell suspension was added to a 24-well plate, with a cell density of 300000 /well and 995 µL of medium per well. • 2) The cells were cultured overnight in an incubator at 37°C, 5% CO2. • 3) Compound treatment. After 24 hours of cell plating, the cells were grouped and dosed according to different cells.
HPAF-II were grouped as: 1% DMSO treated group, 60nM AST treated group, 8 µM Nutlin-3 treated group, AST 60nM + Nutlin-3 8 µM treated group.
Monotherapy: After 24 hours of cell plating, each well was supplied with 5µL of test compounds at different concentrations: 1% DMSO, AST 1.5nM, Nutlin-3 1µM, AST 60nM and Nutlin-3 8µM, shaken gently to ensure even mixing, and then placed at 37°C, 5% CO2 in an incubator.
Combination therapy: After 24 hours of cell plating, each well was supplied with 5µL of 1µM Nutlin-3 and Nutlin-3 8µM respectively for pre-treatment four 2 hours. Then the corresponding cells were added with […] of 1.5nM AST and 60nM AST, shaken gently to ensure even mixing, and then placed at 37°C, 5% CO2 in an incubator.
4) After incubating the 24-well plates in a 37°C, 5% CO2 incubator for 24 hours, the cell protein lysate was collected for WB detection, and the WB detection results were shown in Figure 23. […]

[3] = test system: γH2AX protein in H460 cells; experiment: WB detection of DNA damage marker; settings: 0.1-1 nM AST-3424, 5 µM Nutlin-3, 24 hours (Figures 20-22)
Text: In the first, the second and the third experiment of the effect of AST-3424 in combination with Nutlin-3 on Ser15-p53, Ser20-p53, Total p53, MDM2 and p21 proteins in H460 cells in example 5, the applicant also performed WB detection of γH2AX protein, with the results shown in Figures 20, 21 and 22.

Question: `COc1ccc(C2=NC(c3ccc(Cl)cc3)C(c3ccc(Cl)cc3)N2C(=O)N2CCNC(=O)C2)c(OC(C)C)c1` (racemic) [Nutlin-3] was tested. Which “phosphorylation of p53 (Ser15-p53 and Ser20-p53), protein expression of total-p53, MDM2 and p21 (WB)” value [1] did it give?
Answer: upregulated the expression levels of p53 and its downstream proteins p21 and MDM2

Question: How did the “expression of RAD51 protein (WB)” value [2] turn out when `O=[N+]([O-])c1ccc(C(OP(=O)(N2CC2)N2CC2)C(F)(F)F)cc1Oc1ccc(-c2ccc(F)cc2)c(F)c1` (stereo not shown) [AST] was run?
Answer: promoted the expression of RAD51 protein

Question: And the “expression of p53, its downstream proteins p21 and MDM2 (WB)” value [2]?
Answer: no effect

Question: Which “γH2AX protein amount, a biomarker of DNA double-strand damage (WB)” value [3] does the source give for `C[C@H](OP(=O)(N1CC1)N1CC1)c1ccc([N+](=O)[O-])c(Oc2cccc(C(=O)N(C)C)c2)c1` [AST-3424] here?
Answer: upregulate the amount of γH2AX protein
